Assay results taken from article PMC5963102 (International Journal for Parasitology: Drugs and Drug …, 2017).
Where two headings read alike, the source gives them in different places.

Tests used:
[1] = target: Asu-ACR-16 (nicotine sensitive nAChR) (Ascaris suum, UniProt F1KYJ9); experiment: Two-electrode voltage-clamp on Asu-ACR-16 nAChR expressed in Xenopus laevis oocytes; type: cell-based
Description: (§1) All nAChR subunit and ancillary factor cRNAs from A. suum (Asu-acr-16 and Asu-ric-3), O. dentatum (Ode-unc-29, Ode-unc-38, […] and Ode-acr-8) and H. contortus (Hco-ric-3, Hco-unc-50 and Hco-unc-74) were prepared as previously described ([Abongwa et al., 2016a], [Buxton et al., 2014]). Briefly, defolliculated X. laevis oocytes were obtained from Ecocyte Bioscience (Austin, TX, USA). A Nanoject II microinjector (Drummond Scientific, Broomall, PA, USA) was used to inject cRNA into the cytoplasm at the animal pole region of the oocytes. Homomeric nAChRs comprising Asu-ACR-16 subunits were expressed by co-injecting 25 ng of Asu-acr-16 with 5 ng of Asu-ric-3 in a total volume of 50 nl in nuclease-free water. Heteromeric nAChRs from O. dentatum were expressed by co-injecting 1.8 ng of each subunit cRNA that make up the levamisole (Ode-unc-29, Ode-unc-38, […] and Ode-acr-8) or pyrantel/tribendimidine (Ode-unc-29, Ode-unc-38 and Ode-unc-63) receptor with 1.8 ng of each H. contortus ancillary factor (Hco-ric-3, Hco-unc-50 and Hco-unc-74) in a total volume of 36 nl in nuclease-free water. Injected oocytes were transferred to 96-well microtiter plates containing 200 μl incubation solution (100 mM NaCl, 2 mM KCl, 1.8 mM CaCl2·2H20, 1 mM MgCl2·6H20, 5 mM HEPES, 2.5 mM Na pyruvate, 100 U·ml^−1penicillin and 100 μg ml^−1 streptomycin, pH 7.5) and incubated at 19 °C for 5–7 days to allow for functional receptor expression. Incubation solution was changed daily.
(§2) Currents produced by activation of expressed Asu-ACR-16 and Ode levamisole sensitive and Ode pyrantel/tribendimidine sensitive receptors were recorded using the two-electrode voltage-clamp electrophysiology technique as previously described ([Abongwa et al., 2016a], [Buxton et al., 2014]). 100 μM BAPTA-AM was added to the oocyte incubation solution about 4 h prior to recording to prevent activation of endogenous calcium-activated chloride currents during recording. Recordings were made using an Axoclamp 2B amplifier (Molecular Devices, Sunnyvale, CA, USA) and data acquired on a computer with Clampex 10.3 (Molecular Devices, Sunnyvale, CA, USA). For all experiments, oocytes were voltage-clamped at −60 mV. Microelectrodes for impaling oocytes were pulled using a Flaming/Brown horizontal electrode puller (Model P-97; Sutter Instruments, Novato, CA, USA). The microelectrodes were filled with 3 M KCl and their tips carefully broken with a piece of tissue paper to attain a resistance of 2–5 MΩ in recording solution (100 mM NaCl, 2.5 mM KCl, 1 mM CaCl2·2H2O and 5 mM HEPES, pH 7.3).
(§3) Electrophysiology data was measured with Clampfit 10.3 (Molecular devices, Sunnyvale CA, USA) and analyzed with GraphPad Prism 5.0 (GraphPad Software Inc., La Jolla, CA, USA). […] Concentration-response relationships (for each oocyte) were analyzed by fitting log concentration-response data points with the Hill equation as previously described ([Boulin et al., 2008]). % inhibition for monepantel was calculated using 100-Rmax for each experiment and plotted as mean ± s.e.m. on the concentration-inhibition plots. IC50's were calculated as previously described ([Zheng et al., 2016]). We used one-way ANOVA to test for statistical differences among treatment groups. If the group means were statistically different (p < .05), we used the Tukey multiple comparison test to determine significant differences between groups.

A. suum muscle flaps = experiment: Muscle contraction assay, isometric contractions of Ascaris body muscle flaps; type: cell-based, Ascaris suum; settings: for EC50: Ascaris suum
Description: Adult A. suum were collected from the IMES slaughterhouse, Belgrade, Serbia and maintained in Locke's solution (155 mM NaCl, 5 mM KCl, 2 mM CaCl2, 1.5 mM NaHCO3 and 5 mM glucose) at 32 °C for 5 days. Locke's solution was changed daily. Ascaris muscle flaps for contraction studies were prepared as described in [Trailović et al. (2015)]. Briefly, 1 cm muscle body flaps were prepared by dissecting the anterior 2–3 cm part of the worm. A force transducer in an experimental bath containing 20 ml APF (23 mM NaCl, 110 mM Na acetate, 24 mM KCl, 6 mM CaCl2, 5 mM MgCl2, 11 mM glucose, 5 mM HEPES, pH 7.6) and 0.1% DMSO and bubbled with nitrogen was attached to each muscle flap. The bath was maintained at 37 °C during which isometric contractions of each flap were monitored on a PC computer using a BioSmart interface and eLAB software (EIUnit, Belgrade). The system allows real time recording, display and analysis of experimental data.
Isometric contractions of each Ascaris muscle flap in the absence and presence of monepantel were monitored on a PC computer using eLAB software (EIUnit, Belgrade). GraphPad Prism 5.0 (GraphPad Software Inc., La Jolla, CA, USA) was used to analyze the data. […] Single concentration-response relationships were fitted to the data as described in Section 2.5.1.

[2] = target: Ode levamisole nAChR (Ode-UNC-29:Ode-UNC-38:Ode-UNC-63:Ode-ACR-8) (Oesophagostomum dentatum, UniProt E5KIX9+L7MMZ7+V5J2B2+V5J336); experiment: Two-electrode voltage-clamp on Ode levamisole receptors expressed in Xenopus laevis oocytes; type: cell-based
Ode levamisole nAChR (Ode-UNC-29:Ode-UNC-38:Ode-UNC-63:Ode-ACR-8), sequence (L7MMZ7 entry or part of it): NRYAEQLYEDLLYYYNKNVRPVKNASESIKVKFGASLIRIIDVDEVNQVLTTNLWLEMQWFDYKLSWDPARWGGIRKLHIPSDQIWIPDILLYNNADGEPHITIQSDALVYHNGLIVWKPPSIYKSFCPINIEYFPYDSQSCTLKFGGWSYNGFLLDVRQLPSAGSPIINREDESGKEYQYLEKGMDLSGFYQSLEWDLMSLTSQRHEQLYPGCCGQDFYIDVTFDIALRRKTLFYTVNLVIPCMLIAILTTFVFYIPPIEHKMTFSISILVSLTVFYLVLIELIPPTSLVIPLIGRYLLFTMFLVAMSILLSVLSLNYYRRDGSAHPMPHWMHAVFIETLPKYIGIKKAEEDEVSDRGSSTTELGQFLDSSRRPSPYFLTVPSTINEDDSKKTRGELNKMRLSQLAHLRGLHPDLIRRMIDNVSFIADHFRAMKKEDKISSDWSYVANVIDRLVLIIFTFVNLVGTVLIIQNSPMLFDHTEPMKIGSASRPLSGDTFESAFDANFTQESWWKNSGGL
Ode levamisole nAChR (Ode-UNC-29:Ode-UNC-38:Ode-UNC-63:Ode-ACR-8), sequence (V5J2B2 entry or part of it): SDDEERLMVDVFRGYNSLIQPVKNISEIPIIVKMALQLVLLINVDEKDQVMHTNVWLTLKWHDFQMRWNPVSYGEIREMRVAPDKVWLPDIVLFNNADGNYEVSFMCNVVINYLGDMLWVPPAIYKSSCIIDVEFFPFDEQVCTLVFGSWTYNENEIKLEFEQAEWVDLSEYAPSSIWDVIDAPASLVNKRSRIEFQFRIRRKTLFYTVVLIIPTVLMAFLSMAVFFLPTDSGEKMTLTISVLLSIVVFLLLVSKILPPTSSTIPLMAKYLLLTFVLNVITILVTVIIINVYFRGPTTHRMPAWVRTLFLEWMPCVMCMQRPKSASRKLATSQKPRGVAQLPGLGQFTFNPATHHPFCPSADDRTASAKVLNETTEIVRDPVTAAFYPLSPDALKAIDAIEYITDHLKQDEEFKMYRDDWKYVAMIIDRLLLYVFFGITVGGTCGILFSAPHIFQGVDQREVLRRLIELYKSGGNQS
Ode levamisole nAChR (Ode-UNC-29:Ode-UNC-38:Ode-UNC-63:Ode-ACR-8), sequence (E5KIX9 entry or part of it): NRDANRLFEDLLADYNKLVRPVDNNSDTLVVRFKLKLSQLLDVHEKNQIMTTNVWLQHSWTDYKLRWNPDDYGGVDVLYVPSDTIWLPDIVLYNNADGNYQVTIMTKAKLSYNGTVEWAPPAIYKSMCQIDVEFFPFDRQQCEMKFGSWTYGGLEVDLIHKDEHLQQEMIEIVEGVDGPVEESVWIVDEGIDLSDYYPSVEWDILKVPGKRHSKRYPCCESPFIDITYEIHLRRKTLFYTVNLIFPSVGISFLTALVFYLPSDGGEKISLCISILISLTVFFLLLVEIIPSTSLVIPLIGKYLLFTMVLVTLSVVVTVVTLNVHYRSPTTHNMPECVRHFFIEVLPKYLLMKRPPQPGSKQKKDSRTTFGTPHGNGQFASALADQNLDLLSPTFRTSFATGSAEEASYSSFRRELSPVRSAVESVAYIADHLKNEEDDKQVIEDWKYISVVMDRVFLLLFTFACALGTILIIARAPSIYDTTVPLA
Ode levamisole nAChR (Ode-UNC-29:Ode-UNC-38:Ode-UNC-63:Ode-ACR-8), sequence (V5J336 entry or part of it): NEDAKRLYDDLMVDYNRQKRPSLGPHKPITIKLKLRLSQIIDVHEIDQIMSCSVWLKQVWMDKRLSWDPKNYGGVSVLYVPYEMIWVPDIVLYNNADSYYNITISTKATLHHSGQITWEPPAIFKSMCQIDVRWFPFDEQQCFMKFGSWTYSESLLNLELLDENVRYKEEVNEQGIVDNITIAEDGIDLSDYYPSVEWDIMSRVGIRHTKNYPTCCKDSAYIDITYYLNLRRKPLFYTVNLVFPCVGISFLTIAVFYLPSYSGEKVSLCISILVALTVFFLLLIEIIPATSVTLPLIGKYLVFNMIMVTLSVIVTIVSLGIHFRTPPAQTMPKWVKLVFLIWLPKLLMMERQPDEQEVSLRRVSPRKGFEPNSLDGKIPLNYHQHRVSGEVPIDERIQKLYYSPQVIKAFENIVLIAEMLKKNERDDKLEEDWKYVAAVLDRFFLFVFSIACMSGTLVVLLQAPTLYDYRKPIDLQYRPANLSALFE
Description: as §1
as §2, with “Microelectrodes for impaling oocytes were pulled using a Flaming/Brown horizontal electrode puller (Model P-97; Sutter Instruments, Novato, CA, USA). The microelectrodes were filled with 3 M KCl and their tips carefully broken with a piece of tissue paper to attain a resistance of 2–5 MΩ in recording solution (100 mM NaCl, 2.5 mM KCl, 1 mM CaCl2·2H2O and 5 mM HEPES, pH 7.3).” left out
as §3, with “We used one-way ANOVA to test for statistical differences among treatment groups. If the group means were statistically different (p < .05), we used the Tukey multiple comparison test to determine significant differences between groups.” left out

[3] = target: Ode pyrantel/tribendimidine nAChR (Ode-UNC-29:Ode-UNC-38:Ode-UNC-63) (Oesophagostomum dentatum, UniProt E5KIX9+V5J2B2+V5J336); experiment: Two-electrode voltage-clamp on Ode pyrantel/tribendimidine receptors expressed in Xenopus laevis oocytes; type: cell-based
Ode pyrantel/tribendimidine nAChR (Ode-UNC-29:Ode-UNC-38:Ode-UNC-63), sequence (V5J336 entry or part of it): as above
Ode pyrantel/tribendimidine nAChR (Ode-UNC-29:Ode-UNC-38:Ode-UNC-63), sequence (V5J2B2 entry or part of it): as the sequence (V5J2B2 entry or part of it) above
Ode pyrantel/tribendimidine nAChR (Ode-UNC-29:Ode-UNC-38:Ode-UNC-63), sequence (E5KIX9 entry or part of it): as the sequence (E5KIX9 entry or part of it) above
Description: as §1, §2, §3

[4] = test system: C. elegans ACR-20 receptors; set-up: method as in Baur et al., 2015; settings: ref Baur et al., 2015, cited from earlier work
[5] = test system: H. contortus MPTL-1 receptors; set-up: method as in Baur et al., 2015; settings: ref Baur et al., 2015, cited from earlier work
A. suum = test system: A. suum; set-up: method as in Tritten et al., 2011; settings: 600 mg/kg; ref Tritten et al., 2011; cited from earlier work
[6] = read-out: acetylcholine Rmax (mean ± s.e.m.)

Asu-ACR-16 (nicotine sensitive nAChR), sequence (F1KYJ9 entry or part of it): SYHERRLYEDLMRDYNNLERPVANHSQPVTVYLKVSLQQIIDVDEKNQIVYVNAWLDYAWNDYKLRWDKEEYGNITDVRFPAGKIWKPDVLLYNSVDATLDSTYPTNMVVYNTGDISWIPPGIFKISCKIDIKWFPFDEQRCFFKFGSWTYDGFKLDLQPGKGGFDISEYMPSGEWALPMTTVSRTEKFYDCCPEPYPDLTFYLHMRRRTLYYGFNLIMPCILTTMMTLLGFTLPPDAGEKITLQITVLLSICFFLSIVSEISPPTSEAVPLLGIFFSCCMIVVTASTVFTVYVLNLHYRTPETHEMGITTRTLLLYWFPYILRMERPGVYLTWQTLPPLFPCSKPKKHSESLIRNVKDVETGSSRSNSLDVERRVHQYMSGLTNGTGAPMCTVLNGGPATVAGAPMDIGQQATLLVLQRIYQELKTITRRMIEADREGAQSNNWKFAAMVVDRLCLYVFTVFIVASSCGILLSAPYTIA

CC(=O)OCC[N+](C)(C)C [Acetylcholine]
Emax [1, 6]: 97.5 ± 1.2%
EC50 (A. suum muscle flaps; read-out: acetylcholine EC50 (contraction)): 5.3 µM
EC50 (A. suum muscle flaps; read-out: acetylcholine log EC50 ± s.e.m. (contraction) (converted)): 5.01 µM
acetylcholine Rmax (mean ± s.e.m.), contraction (A. suum muscle flaps; acetylcholine alone (control)): 1.7 ± 0.4 g
Emax [2, 6]: 108.8 ± 1%
EC50 [3]: 11.3 ± 1.3 µM
Emax [3, 6]: 118 ± 4.5%

C[C@](C#N)(COc1cc(C#N)ccc1C(F)(F)F)NC(=O)c1ccc(SC(F)(F)F)cc1 [monepantel, N-[(2S)-2-cyano-1-[5-cyano-2-(trifluoromethyl)phenoxy]propan-2-yl]-4-(trifluoromethylsulfanyl)benzamide]
IC50 [1]: 0.2 µM
type of antagonism of acetylcholine responses ([1]; co-applied with acetylcholine): non-competitive antagonism
maximum inhibition ([1]; component with IC50 1.6 nM): 40%
maximum inhibition ([1]; component with IC50 0.2 μM): ~100%
agonist action (receptor activation) ([1]; monepantel applied on its own): did not cause activation
type of antagonism of acetylcholine induced contractions (A. suum muscle flaps; 1-30 μM monepantel): mixture of competitive and non-competitive antagonism
acetylcholine Rmax (mean ± s.e.m.), contraction (A. suum muscle flaps; in the presence of 3 μM monepantel): 1.1 ± 0.3 g
acetylcholine Rmax (mean ± s.e.m.), contraction (A. suum muscle flaps; in the presence of 10 μM monepantel): 1.1 ± 0.5 g
acetylcholine Rmax (mean ± s.e.m.), contraction (A. suum muscle flaps; in the presence of 30 μM monepantel): 0.5 ± 0.4 g
effect on baseline tension (A. suum muscle flaps; monepantel on its own): did not produce any significant change in baseline tension
concentration at which it acts as direct agonist ([4]; high concentrations): > 0.1 µM
concentration at which it acts as positive allosteric modulator ([4]; low concentrations): < 1 nM
IC50 [2]: 5 ± 0.5 µM
type of antagonism of acetylcholine responses ([2]; co-applied with acetylcholine): non-competitive antagonist
agonist action (receptor activation) ([2]; monepantel applied alone): failed to activate
concentration at which it acts as direct agonist ([5]; high concentrations): > 0.1 µM
concentration at which it acts as positive allosteric modulator ([5]; low concentrations): < 1 nM
in vivo activity against A. suum (A. suum): lack in vivo activity
IC50 [3]: 1.7 ± 0.7 µM
type of antagonism of acetylcholine responses ([3]; co-applied with acetylcholine): non-competitive antagonism
agonist action (receptor activation) ([3]; monepantel alone): did not activate
